# Measurements published in US20060121483A1, “Methods for detecting teneurin signalling and related screening methods” (priority 2002, published 2006).
# Where a SMILES comes first, the peptide text is derived from it. [ ]: non-standard residue; d: D form. Nle = CCCC[C@H](N)C(=O)O
# What was measured:
# Type in all cases: cell-based
# teneurin-2 CTE = assay: Western blot of teneurin-2 CTE and its cleavage products; settings: two cleavage products, one the size of the cytoplasmic domain alone
# Procedure: (§1) HT1 080 human fibrosarcoma (ATCC CRL-12012) and COS-7 cells (SV40-transformed kidney fibroblasts from the African green monkey, ATCC CRL-1651) were routinely maintained In DMEM medium (Dulbecco's Modified Eagles Medium) supplemented with 10% FCS (fetal calf serum). For transient transfections the cells were seeded in 6-well plates or 4-well staining dishes (Greiner). Twelve hours later they were transfected with the expression vectors containing the constructs (1 μg of each vector) described above and in Example 2 (Zic), Example 4 and Example 5 by using FUGENE-6 (3 μl, 6 μl or 9 μl for one, two to three, or four different plasmids, respectively). The cells were treated with the following substances at least five hours after transfection: ALLN (25 μg/ml; N-acetyl-leu-leu-norleu-AL; Sigma); tunicamycin (2 μg/ml; Sigma) or lactacystin (10 μM; e.g. Sigma) for four or eight hours prior to harvesting. […]
# (§2) The gels were transferred to PVDF (polyvinylidene fluoride) membranes. The proteins were detected by anti-GAL4 antibody (BDAD and BDAD-C) or by anti-teneurin-2 serum (BDAD-CTE and BDAD-CTEY), horseradish peroxidase coupled secondary antibodies and ECL SuperSignal® (Pierce).
# [1] = tested on: transcriptional activity of Zic; assay: Zic / ApoE-luciferase reporter assay in EcR 293 stable transfectants
# BDAD-CTEY = assay: BDAD-teneurin-2 fusion GAL4 luciferase reporter (cleavage) assay; settings: addition of protease inhibitors; ALLN 25 μg/ml, lactacystin 10 μM
# Procedure: as §1, with “respectively).” for “respectively). The cells were treated with the following substances at least five hours after transfection: ALLN (25 μg/ml; N-acetyl-leu-leu-norleu-AL; Sigma); tunicamycin (2 μg/ml; Sigma) or lactacystin (10 μM; e.g. Sigma) for four or eight hours prior to harvesting.”
# The cells were lysed by adding reporter lysis buffer (Promega). Serial dilutions of the lysed cell suspension were then pipetted into Microlite™ luciferase plates (Dynex Technologies) and the luciferase activity was measured in a Microlumat (LB96P, EG+G Berthold) by automatic injection of luciferin substrate solution (2 mM luciferin, 100 mM ATP in 250 mM glycin pH 7.8, 150 mM MgSO4). […] To stop the enzymatic reaction, three times the sample volume of 1 M Na2CO3 was added and the OD was measured at 405 nm in a microplate reader (BioRad). […]
# teneurin-2 C = assay: Teneurin-2 C expression level after co-transfection with Zic; settings: HT1080 cells, transient co-transfection of teneurin-2 C and Zic; lactacystin 10 μM
# Procedure: as §1, §2
# In this Example, it was determined whether the zinc finger transcription factor Zic, a vertebrate homologue of opa would influence, or be influenced by, the cytoplasmic domain of teneurin-2. […]
# K3 cells = assay: Proliferation assay, K3 cells; settings: 5 day period, crystal violet, ponasterone induces the cytoplasmic domain of teneurin-2
# Procedure: (§3) The effect of the expression of the cytoplasmic domain of teneurin-2 on cell proliferation was tested. K3 cells (EcR-293 cells (Invitrogen) containing the stably integrated plasmid pVgRXR (Invitrogen) and the plnd teneurin-2 plasmid encoding the cytoplasmic domain, described in Example 7) were cultured in the presence or absence of ponasterone, which induces expression of the cytoplasmic domain of teneurin-2. Typically, over a 5 day period, parallel cultures were fixed with 4% formaldehyde every day and cell numbers were determined by staining the cells with crystal violet (0.1% in H20). In the presence of ponasterone and thus in the presence of the cytoplasmic domain of teneurin, the K3 cells were retarded in their growth rate to about 50% of the untreated cells. Proliferation of EcR-293 cells without transfected cytoplasmic domain of teneurin-2 was not affected by the addition of ponasterone, proving that the growth retardation was specifically dependent on the presence of the cytoplasmic domain of teneurin-2.
# EcR-293 cells = assay: Proliferation assay, EcR-293 cells; settings: EcR-293 cells without transfected cytoplasmic domain of teneurin-2
# Procedure: as §3
Compound,stabilisation of cleavage products of CTE (western blot) (teneurin-2 CTE),stabilization of teneurin-2 C ([1]; ALLN 25 μg/ml),"inhibitory effect of teneurin-2 C on the transcriptional activity of Zic (ApoE-luciferase reporter) ([1]; EcR 293 cells, teneurin-2 C induced by ponasterone, in the presence of ALLN)",induction of luciferase activity following transfection of BDAD-CTEY (BDAD-CTEY),Zic induced downregulation of teneurin-2 C (teneurin-2 C),"expression level of the reporter gene (ApoE-luciferase) after induction of teneurin-2 C ([1]; EcR 293 stable transfectants transiently transfected with Zic, ponasterone induces teneurin-2 C)",growth rate relative to untreated cells (K3 cells),proliferation (EcR-293 cells)
"CCCC[C@@H](C=O)NC(=O)[C@H](CC(C)C)NC(=O)[C@H](CC(C)C)NC(C)=O [ALLN, N-acetyl-leu-leu-norleu-AL] (Ac-Leu-Leu-[Nle]-aldehyde)",stabilisation of two particular cleavage products,stabilize teneurin-2 C,more pronounced,markedly upregulated,–,–,–,–
CC(=O)N[C@@H](CSC(=O)[C@]1([C@@H](O)C(C)C)NC(=O)[C@H](C)[C@@H]1O)C(=O)O [lactacystin],–,–,–,markedly upregulated,counteracted,–,–,–
CC(C)CC[C@@H](O)[C@](C)(O)[C@H]1CC[C@@]2(O)C3=CC(=O)[C@@H]4C[C@@H](O)[C@@H](O)C[C@]4(C)[C@H]3CC[C@]12C [ponasterone],–,–,–,–,–,marked reduction,about 50%,not affected
